Measurements: patent US20220218715A1, “NOVEL USE OF PYRROLO-PYRIDINE DERIVATIVE COMPOUND FOR PREVENTION AND/OR TREATMENT OF CANCER” (VORONOI CO., LTD., priority 2019, published 2022)

Legend:
PC-9 lung cancer cells = experiment: Anticancer effect in mouse model with PC-9 lung cancer cells; type: in vivo, Balb/c Nude Mice; conditions: PC-9 model; singular treatment with EGFR targeting drug, PO QD (Gefitinib 10 mg/kg, Osimertinib 3 mg/kg)
Description: (§1) The PC-9 cell line was purchased from NanJing Cobioer Biological Technology Co., Ltd. Cells were kept in RPMI-1640 containing 10% FBS, and cultured in a 37° C. humidified cell culture incubator at 5% C2. All animal experiments were carried out according to the Animal Use and Management Guidelines of Shanghai Medicilon Inc. Under sterile conditions, 2×10^6 PC-9 tumor cells (0.1 mL, cell:Matrigel®=1:1) was administered to the right waist of each animal by S.C. administration. Tumor size and animal body weight were measured twice weekly, and clinical symptoms were recorded daily. The mice will be administered individually according to most recent body weight. The tumors were measured using calipers using two measurements, length (a) and width (b). The volume of the tumors was calculated individually as follows, from the two measured diameters of the tumors: tumor volume (mm^3)=(a×b^2)/2.

[1] = test system: NCI-H1975 lung cancer cells; experiment: Anticancer effect in mouse model with NCI-H1975 lung cancer cells; type: in vivo, Balb/c Nude Mice; conditions: singular treatment with Osimertinib 3.5 mg/kg PO QD
Description: as §1, with “NCI-H1975” for “PC-9”, “the Institute of Biochemistry and Cell Biology (Shanghai Institutes for” for “NanJing Cobioer”, “Sciences, CAS).” for “Technology Co., Ltd.”, “CO2.” for “C2.”, “Under sterile conditions, 2×10^6 PC-9 tumor cells (0.1 mL, cell:Matrigel®=1:1) was administered to the right waist of each animal by S.C. administration.” left out

| SMILES | cancer cell regrowth during treatment (PC-9 lung cancer cells) | cancer cell regrowth during treatment [1] |
| --- | --- | --- |
| COc1cc2ncnc(Nc3ccc(F)c(Cl)c3)c2cc1OCCCN1CCOCC1 [Gefitinib, reference compound] | early regrowth of cancer cells was observed | – |
| C=CC(=O)Nc1cc(Nc2nccc(-c3cn(C)c4ccccc34)n2)c(OC)cc1N(C)CCN(C)C [Osimertinib, reference compound] | early regrowth of cancer cells was observed | early regrowth of cancer cells was observed |
